Source: patent publication US20060167115A1, “Compositions for the preservation of timber” (priority 2003, published 2006)

Assays:
Gloeophyllum trabeum = assay: Biological efficacy test (ASTM D1413-76), soil block medium; format: cell-based
Protocol: (§1) The following fungi were tested: Neo-Lentinus lepideus (Brown rot fungus), Poria placenta (Brown rot fungus) and Gloeophyllum trabeum (Brown rot fungus). The preservative used was TBBA (waterborne). Seven concentrations of the preservative was used: 3.0%, 2.0%, 1.5%, 1.0%, 0.5%, 0.05% and 0.0% (w/w), i.e. the carrier solution in the absence of the preservative. All wood blocks were of Scots pine sapwood (Pinus sylvestris) with an approximate volume of 6.86 cm^3 (19 mm×19 mm×19 mm). All wood block specimens, where applicable, were vacuum impregnated with the preservative concentrations according to American standard ASTM D1413-76. • Treated test specimens: 3 (fungi)×7 (preservative concentrations)×1 (preservative)×8 (replicates)=168 test blocks • Untreated test specimens (control): 3 (fungi)×1 (preservative)×4 (replicates)=12 test blocks
(§2) After block treatments were completed, all the blocks were sterilized using ionizing radiation according to the conditions set out in American standard ASTM D1413-76. The incubation period for the test was 12 weeks.

Neo-Lentinus lepideus = assay: as above; format: cell-based
Protocol: as §1, §2

Poria placenta [1] = assay: as above; format: cell-based
Protocol: as §1, §2

Coniophora puteana = assay: Biological efficacy test (EN 113), agar medium; format: cell-based
Description: (§3) Two fungi were used: Coniophora puteana Brown rot fungus) and Poria placenta (Brown rot fungus). The preservative used was TBBA (waterborne). Seven concentrations of the preservative was used: 3.0%, 2.0%, 1.5%, 1.0%, 0.5%, 0.05%, and 0.0% (w/w), i.e. the carrier solution in the absence of the active material. All wood blocks were of Scots pine sapwood (Pinus sylvestris) with an approximate volume of 18.75 cm^3 (50 mm×25 mm×15 mm) in accordance with European standard EN 113. • Treated test specimens: 2 (fungi)×7 (preservative concentrations)×1 (preservative)×4 (replicates)=56 test blocks • Untreated test specimens (for exposure alongside treated blocks): 2 (fungi)×7 (preservative concentrations)×1 (preservative)×4 (replicates)=56 test blocks • Untreated test specimens (virulence): 2 (fungi)×6 (replicates)=12 test blocks • Treated check test specimens: 4 (replicates)×7 (preservative concentrations)×1 (preservative)=28 test blocks
(§4) After block impregnation, according to European standard EN 113, and conditioning were completed, all the blocks were sterilized using ionizing radiation according to the conditions set out in EN 113. The incubation period for the test (length of block exposure to the chosen basidiomycete fungi) was 16 weeks.
(§5) It was noted that some waterlogging of certain test and control specimens had occurred. In keeping with the EN 113 format, weight changes for particular waterlogged specimens, when these are clearly unrepresentative of a group, were not included in the mean figures presented. In addition, weight losses of unrepresentative specimens generally, were not included in the mean figures presented.

Poria placenta [2] = assay: Biological efficacy test (EN 113), agar medium; format: cell-based
Description: as §3, §4, §5

wood decay = assay: Wood decay field stake test (modified AWPA E7-01), ground contact; details: TBBA added to ethanol, over all concentrations; groups of 10 stakes; seven months in ground
Protocol: The preservative value of TBBA in terms of preventing wood decay was examined by ground contact exposure of TBBA treated stakes at a test plot in Gainesville, Fla. The test detail was essentially based on the “STANDARD METHOD OF EVALUATING WOOD PRESERVATIVES BY FIELD TESTS WITH STAKES”, Standard E7-01, promulgated by the American Wood Preservers Association (AWPA).
All the test stakes were of southern pine sapwood and were vacuum impregnated with TBBA. The TBBA was dissolved in one of four solutions: ethanol, P9 type A oil, and in two micro-emulsions: • emulsion #1: TBBA 20.81%, Butyl Lactate 31.02%, NP-15 22.33% and water 25.83% • emulsion #2: TBBA 20.05%, Butyl Lactate 29.88%, NP-15 21.51% and water 28.55%
Each of the emulsions was diluted so that the corresponding concentration (w/v) of TBBA in all of the solutions was: 1.72%, 3.4%, 5.1%, 6.8% and 8.5%.
Two groups of control stakes were also installed in the test plot. One group was vacuum impregnated with pure ethanol. The second group was untreated.
The groups of stakes for each treatment were installed in the test plot, left for seven months, and evaluated according to the procedure set-out in AWPA Standard E7-01. […]

[3] = TBBA waterborne 0.05% w/w, retention 0.38 kg/m^3, 12 weeks
[4] = TBBA waterborne 0.5% w/w, retention 3.86 kg/m^3, 12 weeks

CC(C)(c1cc(Br)c(O)c(Br)c1)c1cc(Br)c(O)c(Br)c1 [TBBA, Tetrabromobisphenol A]
Corrected mean loss in mass (%) (Gloeophyllum trabeum; [3]): 42.71 (13.14) %
Corrected mean loss in mass (%) (Gloeophyllum trabeum; TBBA waterborne 0.5% w/w, retention 3.87 kg/m^3, 12 weeks): 45.02 (7.20) %
Corrected mean loss in mass (%) (Gloeophyllum trabeum; TBBA waterborne 1.0% w/w, retention 7.73 kg/m^3, 12 weeks): 5.52 (8.99) %
Corrected mean loss in mass (%) (Gloeophyllum trabeum; TBBA waterborne 1.5% w/w, retention 11.75 kg/m^3, 12 weeks): 2.232 (4.66) %
Corrected mean loss in mass (%) (Gloeophyllum trabeum; TBBA waterborne 2.0% w/w, retention 15.62 kg/m^3, 12 weeks): 0.29 (0.25) %
Corrected mean loss in mass (%) (Gloeophyllum trabeum; TBBA waterborne 3.0% w/w, retention 23.02 kg/m^3, 12 weeks): 0.13 (0.26) %
Corrected mean loss in mass (%) (Neo-Lentinus lepideus; TBBA waterborne 0.05% w/w, retention 0.40 kg/m^3, 12 weeks): 31.44 (5.65) %
Corrected mean loss in mass (%) (Neo-Lentinus lepideus; [4]): 4.55 (16.26) %
Corrected mean loss in mass (%) (Neo-Lentinus lepideus; TBBA waterborne 1.0% w/w, retention 7.62 kg/m^3, 12 weeks): 0.36 (0.19) %
Corrected mean loss in mass (%) (Neo-Lentinus lepideus; TBBA waterborne 1.5% w/w, retention 11.61 kg/m^3, 12 weeks): 0.04 (0.09) %
Corrected mean loss in mass (%) (Neo-Lentinus lepideus; TBBA waterborne 2.0% w/w, retention 15.51 kg/m^3, 12 weeks): 0.04 (0.20) %
Corrected mean loss in mass (%) (Neo-Lentinus lepideus; TBBA waterborne 3.0% w/w, retention 23.79 kg/m^3, 12 weeks): 0.11 (0.38) %
Corrected mean loss in mass (%) (Poria placenta [1]; [3]): 31.70 (9.88) %
Corrected mean loss in mass (%) (Poria placenta [1]; [4]): 30.27 (5.59) %
Corrected mean loss in mass (%) (Poria placenta [1]; TBBA waterborne 1.0% w/w, retention 7.81 kg/m^3, 12 weeks): 9.65 (18.03) %
Corrected mean loss in mass (%) (Poria placenta [1]; TBBA waterborne 1.5% w/w, retention 11.57 kg/m^3, 12 weeks): −0.12 (0.28) %
Corrected mean loss in mass (%) (Poria placenta [1]; TBBA waterborne 2.0% w/w, retention 15.72 kg/m^3, 12 weeks): −0.29 (0.26) %
Corrected mean loss in mass (%) (Poria placenta [1]; TBBA waterborne 3.0% w/w, retention 23.22 kg/m^3, 12 weeks): −0.71 (0.14) %
Corrected mean loss in mass (%) (Coniophora puteana; TBBA waterborne 0.05% w/w, retention 0.39 kg/m^3, 16 weeks): 46.82 (6.31) %
Corrected mean loss in mass (%) (Coniophora puteana; TBBA waterborne 0.5% w/w, retention 3.78 kg/m^3, 16 weeks): 34.87 (13.21) %
Corrected mean loss in mass (%) (Coniophora puteana; TBBA waterborne 1.0% w/w, retention 7.30 kg/m^3, 16 weeks): 37.27 (—) %
Corrected mean loss in mass (%) (Coniophora puteana; TBBA waterborne 1.5% w/w, retention 11.12 kg/m^3, 16 weeks): −1.30 (1.16) %
Corrected mean loss in mass (%) (Coniophora puteana; TBBA waterborne 2.0% w/w, retention 15.24 kg/m^3, 16 weeks): −6.79 (0.34) %
Corrected mean loss in mass (%) (Coniophora puteana; TBBA waterborne 3.0% w/w, retention 23.65 kg/m^3, 16 weeks): −1.06 (0.69) %
Corrected mean loss in mass (%) (Poria placenta [2]; TBBA waterborne 0.05% w/w, retention 0.25 kg/m^3, 16 weeks): 30.94 (2.90) %
Corrected mean loss in mass (%) (Poria placenta [2]; TBBA waterborne 0.5% w/w, retention 3.79 kg/m^3, 16 weeks): 7.94 (19.35) %
Corrected mean loss in mass (%) (Poria placenta [2]; TBBA waterborne 1.0% w/w, retention 7.71 kg/m^3, 16 weeks): 6.17 (14.50) %
Corrected mean loss in mass (%) (Poria placenta [2]; TBBA waterborne 1.5% w/w, retention 11.81 kg/m^3, 16 weeks): −2.19 (070) %
Corrected mean loss in mass (%) (Poria placenta [2]; TBBA waterborne 2.0% w/w, retention 12.84 kg/m^3, 16 weeks): −6.21 (0.44) %
Corrected mean loss in mass (%) (Poria placenta [2]; TBBA waterborne 3.0% w/w, retention 20.70 kg/m^3, 16 weeks): −1.67 (0.22) %
Instances of Grade No. 10 (count per group) (wood decay): 8-10
